{"source": "paper PMC2889824", "about": "“Structural Optimization and De Novo Design of Dengue Virus Entry Inhibitory Peptides” (PLoS Neglected Tropical Diseases, 2010)", "key": {"DENV-2 strain NG-C [1]": {"test_system": "DENV-2 strain NG-C", "format": "cell-based, dengue virus-2 (DENV-2)", "details": "for inhibition of DENV-2 infection (in words): DENV-2 NG-C, any concentration tested; for maximum inhibition: 24 h", "procedure": "LLC-MK2 target cells were seeded at a density of 1×10^5 cells in each well of a 6-well plate 24 h prior to infection. Approximately 200 focus forming units (FFU) of virus were incubated with or without peptide in serum-free DMEM for 1 h at rt. Virus/peptide or virus/control mixtures were allowed to infect confluent target cell monolayers for 1 h at 37°C, with rocking every 15 m, after which time the medium was aspirated and overlaid with fresh DMEM/10% (v/v) FBS containing 0.85% (w/v) Sea-Plaque Agarose (Cambrex Bio Science, Rockland, ME) without rinsing. Cells with agar overlays were incubated at 4°C for 20 m to set the agar. Infected cells were then incubated at 37°C with 5% CO2 for 5 days. Infected cultures were fixed with 10% formalin overnight at 4°C, permeablized with 70% (v/v) ethanol for 20 m, and rinsed with phosphate buffered saline, pH 7.4 (PBS) prior to immunostaining. Virus foci were detected using a specific mouse mAb from hybridoma E60 (obtained from M. Diamond at Washington University), followed by horseradish peroxidase-conjugated goat anti-mouse immunoglobulin (Pierce, Rockford, IL), and developed using AEC chromogen substrate (Dako, Carpinteria, CA). Results are expressed as the average of at least two independent trials with three replicates each. IC50 values were determined using variable slope sigmoidal dose-response curve fits with GraphPad Prism 4.0 software (LaJolla, CA), except for DN81opt, which was determined graphically due to a lack of data points to produce a reasonable curve fit."}, "LLC-MK2 cells": {"test_system": "LLC-MK2 cells", "format": "cell-based, Macaca mulatta", "procedure": "Cytotoxicity of peptides was measured by monitoring mitochondrial reductase activity using the TACS™ MTT cell proliferation assay (R&D Systems, Inc., Minneapolis, MN) according to the manufacturer's instructions. Dilutions of peptides in serum-free DMEM were added to confluent monolayers of LLC-MK2 cells in 96-well plates for 1 h at 37°C, similar to the focus forming inhibition assays, and incubated at 37°C with 5% (v/v) CO2 for 24 h. Absorbance at 560 nm was measured using a Tecan GeniosPro plate reader (Tecan US, Durham, NC)."}, "DENV-2 strain NG-C [2]": {"test_system": "DENV-2 strain NG-C", "details": "cited from earlier work; for DENV inhibitory activity of wild type mimic peptides (in words): previous work; for IC50: previously tested wild type peptides denoted with an asterisk, read-out: IC50 (did not achieve 50% inhibition), previously tested wild type peptides", "text": "Table 1 Sequences and IC50 values of peptides. | column: IC50 (µM) || We had previously identified several E protein regions where peptides mimicking the E protein sequence might function as inhibitors. […] These included a peptide derived from the domain II fusion sequence (DN80, corresponding to amino acids 96–114 in the DENV-2 E protein) and two overlapping peptides derived from the domain II hinge region (DN57 and DN81, corresponding to amino acids 205–223 and 205–232, respectively). Predictions from crystal structures, [14], [15], as well as the previously confir ..."}, "[3]": {"biological_target": "T1, purified, recombinant, 80% truncated DENV-2 S1 E protein (Dengue virus type 2, UniProt P12823)", "T1 construct": "Purified, recombinant, 80% truncated DENV-2 S1 E protein was obtained from Hawaii Biotechnology; purchased Hawaii Biotechnology (Honolulu, HI)", "experiment": "biochemical", "format": "binding, DENV-2 strain S1", "details": "for kon: read-out: association rate constant ka; for koff: read-out: dissociation rate constant kd", "procedure": "Real time binding assays between peptides and purified DENV-2 S1 E protein were performed using biolayer interferometry on an Octet QK system (Fortebio, Menlo Park, CA). This system monitors interference of light reflected from the surface of a fiber optic sensor to measure the thickness of molecules bound to the sensor surface. Purified, recombinant, 80% truncated DENV-2 S1 E protein was obtained from Hawaii Biotechnology (Honolulu, HI). Peptides were N-terminally biotinylated with a 5∶1 molar ratio of NHS-LC-LC-Biotin (Pierce/ThermoFisher, Rockford, IL) in PBS pH 6.5 at 4°C. Excess biotinylation reagent was removed using Pepclean C-18 spin columns (Pierce/ThermoFisher, Rockford, IL). Biotinylated peptides were coupled to kinetics grade streptavidin high binding biosensors (Fortebio, Menlo Park, CA) at several different concentrations. Sensors coated with peptides were allowed to bind to E protein in PBS with 0.02% (v/v) Tween-20 and 1 mg/ml BSA at several different E protein concentrations. Binding kinetics were calculated using the Octet QK software package, which fit the observed binding curves to a 1∶1 binding model to calculate the association rate constants. E protein was allowed to dissociate by incubation of the sensors in PBS. Dissociation curves were fit to a 1∶1 model to calculate the dissociation rate constants. Binding affinities were calculated as the kinetic dissociation rate constant divided by the kinetic association rate constant."}, "[4]": {"test_system": "DENV-2 binding to LLC-MK2 cells", "experiment": "Virus:cell binding inhibition assay (qRT-PCR)", "format": "cell-based, dengue virus-2 (DENV-2)", "details": "virus pre-incubated 1 h 4°C, bound to LLC-MK2 2 h 4°C, washed, compared to control virus without peptide", "procedure": "Binding inhibition assays were modified from Thaisomboonsuk, et al.}. Briefly, LLC-MK2 monolayers were rinsed in 4°C DMEM containing 0.8% BSA and 25 mM HEPES, pH 7.5. Virus was incubated at 4°C with peptides, control anti-dengue serum, or heparan sulfate in DMEM/BSA/HEPES for one hour before adding to the monolayers for 2 hours at 4°C. Monolayers were rinsed 3 times with cold DMEM/BSA/HEPES media prior to RNA extraction using the Qiagen RNeasy mini kit (Valencia, CA) per manufacturers instructions. Quantitative, real time, reverse transcriptase polymerase chain reaction (qRT-PCR) was conducted utilizing the Roche Lightcycler RNA Master SYBR Green 1 qRT-PCR kit (Basel, Switzerland), using primers Den_F (TTAGAGGAGACCCCTCCC) and Den_R ([…]) from Chutinimitkul et al.}. and the following cycling conditions: 1 h at 61°C, 30 s at 95°C, followed by 45 cycles of: 5 s at 95°C, 20 s at 61°C, and 30 s at 72°C. Cp values were used to estimate infectious units according to a standard curve. Independent assays were repeated three times, in duplicate or triplicate."}, "[5]": {"details": "FFU reduction, DENV-2 NG-C on LLC-MK2 cells, dashed line = tested, 50% inhibition not achieved, read-out: IC50 (did not achieve 50% inhibition)"}, "[6]": {"details": "MTT, confluent LLC-MK2, 24 h post-exposure, any concentration tested, one-way ANOVA, P>0.05"}}, "note": "Like-named read-outs stand apart in the source and are kept apart here. Where no end group is shown, it is not given here.", "data": [{"substance": "QQCFRFPALRKKATYTRFWI [1OAN1-scram, scrambled version of 1OAN1 of identical composition]", "values": [{"measurement": "IC50", "setting": "DENV-2 strain NG-C [1]; [5]", "result": "> 50", "unit": "µM"}, {"measurement": "inhibition of DENV-2 infection (in words)", "setting": "DENV-2 strain NG-C [1]; FFU reduction", "result": "did not inhibit infection by DENV-2 at any concentration tested"}, {"measurement": "cellular toxicity", "setting": "LLC-MK2 cells; [6]", "result": "not toxic at any concentration tested"}]}, {"substance": "MVIVQHQWMQIMRWPWQPE [DN80opt]", "values": [{"measurement": "IC50", "setting": "DENV-2 strain NG-C [1]; [5]", "result": "> 50", "unit": "µM"}]}, {"substance": "AWLVHTQWFLDLPLPWLPGADTQGSNWI [DN57wt, previously tested wild type peptide from the DENV-2 E domain II hinge region]", "values": [{"measurement": "DENV inhibitory activity of wild type mimic peptides (in words)", "setting": "DENV-2 strain NG-C [2]", "result": "did not show substantial DENV inhibitory activity"}, {"measurement": "IC50", "setting": "DENV-2 strain NG-C [2]", "result": "> 50", "unit": "µM"}]}, {"substance": "YPENLEYRVYITPHPGEEHH [1OAN2, de novo designed peptide, E protein region 131–150]", "values": [{"measurement": "IC50", "setting": "DENV-2 strain NG-C [1]; [5]", "result": "> 50", "unit": "µM"}]}, {"substance": "AWLVHRQWFLDLPLPWLPG [DN81wt, previously tested wild type peptide from the domain II hinge region]", "values": [{"measurement": "DENV inhibitory activity of wild type mimic peptides (in words)", "setting": "DENV-2 strain NG-C [2]", "result": "did not show substantial DENV inhibitory activity"}, {"measurement": "IC50", "setting": "DENV-2 strain NG-C [2]", "result": "> 50", "unit": "µM"}]}, {"substance": "EWSKHREGRWHTALTGATEI [1OAN3, de novo designed peptide, E protein region 251–270]", "values": [{"measurement": "IC50", "setting": "DENV-2 strain NG-C [1]; [5]", "result": "> 50", "unit": "µM"}]}, {"substance": "RQMRAWGQDYQHGGMGYSC [DN81opt]", "values": [{"measurement": "IC50", "setting": "DENV-2 strain NG-C [1]; -2 strain NG-C, 1 h", "result": "36 ± 6", "unit": "µM"}, {"measurement": "maximum inhibition", "setting": "DENV-2 strain NG-C [1]; -2 strain NG-C, 50 µM", "result": 57, "unit": "%"}]}, {"substance": "WHTVEPIVTEKDRPVNYEWE [1OAN4, de novo designed peptide, E protein region 351–370]", "values": [{"measurement": "IC50", "setting": "DENV-2 strain NG-C [1]; [5]", "result": "> 50", "unit": "µM"}]}, {"substance": "RWRHLKKMQRLQPRNPNWPGQFWVHYNW [DN57opt-scram, scrambled version of DN57opt of identical composition]", "values": [{"measurement": "IC50", "setting": "DENV-2 strain NG-C [1]; [5]", "result": "> 50", "unit": "µM"}, {"measurement": "inhibition of DENV-2 infection (in words)", "setting": "DENV-2 strain NG-C [1]; FFU reduction", "result": "did not display inhibition at any concentration tested"}, {"measurement": "cellular toxicity", "setting": "LLC-MK2 cells; [6]", "result": "not toxic at any concentration tested"}]}, {"substance": "FWFTLIKTQAKQPARYRRFC [1OAN1]", "values": [{"measurement": "IC50", "setting": "DENV-2 strain NG-C [1]; -2 strain NG-C, 1 h", "result": "7 ± 4", "unit": "µM"}, {"measurement": "maximum inhibition", "setting": "DENV-2 strain NG-C [1]; -2 strain NG-C, 50 µM", "result": 99, "unit": "%"}, {"measurement": "Kd", "setting": "[3]", "result": 450, "unit": "nM"}, {"measurement": "kon", "setting": "[3]", "result": 3900, "unit": "M⁻¹ s⁻¹"}, {"measurement": "koff", "setting": "[3]", "result": 0.0016, "unit": "s⁻¹"}, {"measurement": "cellular toxicity", "setting": "LLC-MK2 cells; [6]", "result": "not toxic at any concentration tested"}]}, {"substance": "RWMVWRHWFHRLRLPYNPGKNKQNQQWP [DN57opt]", "values": [{"measurement": "IC50", "setting": "DENV-2 strain NG-C [1]; -2 strain NG-C, 1 h", "result": "8 ± 1", "unit": "µM"}, {"measurement": "maximum inhibition", "setting": "DENV-2 strain NG-C [1]; -2 strain NG-C, 20 µM", "result": 97, "unit": "%"}, {"measurement": "Kd", "setting": "[3]", "result": 1200, "unit": "nM"}, {"measurement": "kon", "setting": "[3]", "result": 800, "unit": "M⁻¹ s⁻¹"}, {"measurement": "koff", "setting": "[3]", "result": 0.00077, "unit": "s⁻¹"}, {"measurement": "cellular toxicity", "setting": "LLC-MK2 cells", "result": "mildly toxic"}]}, {"substance": "heparan sulfate", "values": [{"measurement": "virus:cell binding", "setting": "[4]", "result": "reduced cell binding"}]}]}
